These results are taken from ChEMBL document CHEMBL1150753, “Antitumor agents, 93. Bruceanol C, a new cytotoxic quassinoid from Brucea antidysenterica” (1988).

Values after ≈ are worked out from the molar mass of the structure shown.

What all share (assay type): functional
What all share (details): read-out: ED50 (the source's name)

For one test, the system named is KB. Nature of the test: Cytotoxicity against human KB cells.
The next test deals with HCT-8. Nature of the test: Cytotoxicity against human HCT8 cells.
The test system of the next test is A549. The experiment in a line: Cytotoxicity against human A549 cells.
In another test the test system is P388. The experiment in a line: Cytotoxicity against mouse P388 cells.

On to `COC(=O)[C@]12OC[C@]34[C@H]([C@@H](O)[C@@H]1O)[C@@]1(C)[C@H](O)C(=O)C=C(C)[C@@H]1C[C@H]3OC(=O)[C@H](OC(=O)/C=C(\C)C(C)(C)OC(C)=O)[C@@H]24` [Bruceanol C], for which the EC50 was less than 0.04 µg/mL in the test with KB, less than 0.4 µg/mL in the test on HCT-8, 0.48 µg/mL (≈ 0.791 µM) with A549 and 0.56 µg/mL (≈ 0.923 µM) with P388.
